The record followed here is patent US11969402B2, “Compositions and methods for skin rejuvenation” (THE JOHNS HOPKINS UNIVERSITY, priority 2019, dated 2024).

Assay [1] deals with human scalp keratinocytes. Put plainly: Retinoid levels (RA by LC-MS/MS, ROL and RE by HPLC-UV) in keratinocytes. The note with it: human scalp keratinocytes, rhIL6 0, 10, 50, 100 ng per ml, 2 days. It counts as cell-based. The text has this: Small interference RNA (siRNA) transfection. Human ALDH1A2 (Santa Cruz Biotechnology, sc41443), ALDH1A3 (Santa Cruz Biotechnology, sc43611), TLR3 (Dharmacon, M-007745-00), TRIF (Santa Cruz Biotechnology, sc106845), IRF3 (Santa Cruz Biotechnology, sc35710), NF-κB (Santa Cruz Biotechnology, sc29410) and non-targeting control (scramble) siRNAs (Santa Cruz Biotechnology, sc37007 & Dharmacon, D-001210) were commercially provided. Human scalp keratinocytes (3×10^5 cells per well) in 12-well plates were transfected with 20 nM of siRNAs using Lipofectamine® RNAiMAX (Thermo Fisher Scientific, #13778150) following the manufacturer's directions. Poly (I:C) (0.1 μg per ml) was applied to transfected cells and incubated for 48 hrs. At the end of transfection period, cells were harvested to isolate protein to perform qRT-PCR, western blot, and RA mass spectrometry.
IL6 treatment. Recombinant human interleukin 6 (rhIL6) (R&D system; 206-IL-010) was treated into human scalp keratinocytes with dose-dependent manners (0, 10, 50, and 100 ng per ml) for 2 days. Cells were harvested and lysates were used for RA measurement.
Determination of Retinoid Levels. For in vitro samples, human scalp keratinocytes were incubated with 0.5 μg per ml of Poly (I:C) for 48 hrs or siRNAs-transfected cells were incubated with 0.1 μg per ml of Poly (I:C) for 48 hrs. For in vivo samples, skin was analyzed from wild-type and Tlr3^−/− unwounded and wounded skin where wound regions (center and edge area) were cut by scalpel. Human skin was analyzed for retinoids with and without CO2 laser treatment as described. All samples were frozen at collection and stored at −80° C. until extraction. For in vitro experiments, media and cell pellets were analyzed separately. For in vivo experiments, tissues were homogenized in saline. Extraction of retinoids was performed under yellow lights using a two-step liquid-liquid extraction that has been described in detail previously using 4,4-dimethyl-RA as an internal standard for RA and retinyl acetate as an internal standard for retinol and total retinyl ester^43-46. For the extraction of retinoids, 1 to 3 ml of 0.025 M KOH in ethanol was added to tissue homogenates (in vivo) or cell culture (in vitro) samples. Then 10 ml hexane (for in vivo tissue sample) or 5 ml hexane (for in vitro cell culture sample) was added to the aqueous ethanol phase. The samples were vortexed and centrifuged for 1 to 3 min at 1000 rpm in a Dynac centrifuge (Becton Dickinson) to facilitate phase separation and pellet precipitated protein. The hexane (top) phase containing nonpolar retinoids (ROL and RE) was removed. 4 M HCl (60-180 μl) was added to the remaining aqueous ethanol phase, samples were vortexed, and then polar retinoids (RA) were removed by extraction with a second 5-10 ml aliquot of hexane as described above. […]
Levels of RA were determined by liquid chromatography-multistage tandem mass spectrometry (LC-MRM^3) which is an LC-MS/MS method utilizing two distinct fragmentation events for enhanced selectivity^43. RA was measured using a Shimadzu Prominence UFLC XR liquid chromatography system (Shimadzu, Columbia, MD) coupled to an AB Sciex 5500 or 6500+ QTRAP hybrid triple quadrupole mass spectrometer (AB Sciex, Framingham, MA) using atmospheric pressure chemical ionization (APCI) operated in positive ion mode as previously described^43. […]

Assay [2] has as its system human scalp keratinocytes. Put plainly: Western blot / immunostaining of ALDH1A3, KRT15, KRT19 in human keratinocytes. It counts as cell-based. The note with it: human keratinocytes. Here is the method:
(§1) BMS493 treatment. BMS493 pan-RARs antagonist (1 μM) was pre-treated into keratinocytes for an hour and cells were incubated with RA (0.1 μM and 0.5 μM for human and mouse keratinocytes, respectively) or Poly (I:C) (0.1 μg per ml for both human and mouse keratinocytes) for 48 hrs. At the end of the experiment, cells were harvested for RNA and protein extraction to do further analysis including qRT-PCR and western blot.
Western blot analysis. Human and mouse keratinocytes were disrupted in M-PER lysis buffer (Thermo Fisher Scientific, #78501) containing protease inhibitors (Thermo Fisher Scientific, #87786) using ultrasonic homogenizer (20% power with 5 times every 2 seconds) to extract proteins. Then, protein concentrations were determined by BCA method (Thermo Fisher Scientific, #23225). Western blot procedures were followed by the protocol of NuPAGE system (Thermo Fisher Scientific). Briefly, 20 μg of protein samples were loaded for electrophoresis and transferred to polyvinylidene di-fluoride (PVDF) membrane (Bio-Rad, Hercules, CA). After blocking for at least an hour in 5% non-fat dry milk, the membrane was incubated with primary antibodies with appropriate dilutions (Table 2) at 4° C. overnight and followed by incubation with secondary antibodies for 1 hour at room temperature. Protein amounts were normalized to rabbit polyclonal anti-human β-actin antibody (1:1,000 dilution) (Cell Signaling Technology). Finally, proteins were visualized using SuperSignal West Pico PLUS chemiluminescent substrate kit (Thermo Fisher Scientific, #34577) and saved as image files using ChemiDoc XRS^+ (Bio-Rad). The signal intensity of protein was quantified using Image Lab software (Bio-Rad). Original images of representative blots were provided in the Source data file.
Immunofluorescence. For tissues, frozen-sections of mouse skin samples were stained with primary antibodies with appropriate dilution at 4° C. overnight, followed by incubation with goat anti-rabbit IgG labeled with Alexa Flour® 488 (Life Technologies) and 594 (Life Technologies) for 1 hour at room temperature. For cells, keratinocytes (3×10^5 cells) plated on cover-slip were fixed with 4% Paraformaldehyde (PFA) for 10 min, permeabilized in PBS including 0.5% Triton X-100 for 15 min at room temperature. After washing with PBS 3 times, cells were stained with primary antibodies overnight at 4° C., followed by incubation with goat anti-rabbit or mouse IgG labeled with Alexa Flour® 488 for 1 hour at room temperature. Cell nuclei were visualized by mounting medium including DAPI (Vector Laboratories, Burlingame, CA, H-1200). Fluorescence images were observed by fluorescence microscopy (Leica microsystems), taken pictures with ×100 (low magnification) and ×200 (high magnification), and saved as image files.
For orientation: Immunoblotting shows a protein as a band on a membrane.

The subject of another assay is wound beds. Put plainly: Immunostaining of healing wounds. In kind it is in vivo, mouse. The note with it: WT mice. Here is the method: (§2) Wound Induced Hair Neogenesis (WIHN). All experiments were followed with the present inventors' WIHN protocol^1,9. Briefly, hair was shaved and a 1.2 cm^2 full-thickness skin on the backs of 21-day old (telogen) male and female mice was removed by sterile scissors. A single treatment of RA (30 μl) (0.1 μg per mouse) (Millipore Sigma, R2625) and BMS493 (30 μl) (0.1 μg per mouse) (Cayman Chemical, #17418) was applied topically onto open wound on WD1 of Tlr3^−/− and WT mice, respectively. Poly (I:C) (50 μl) (5 μg per mouse) (Invivogen, tlrl-pic) was injected under the healed scab on WD3 of WT mice as described before^9,34. On WD20-24, numbers of regenerated hair follicles were visualized and quantified in the re-epithelialized skin by non-invasive confocal scanning laser microscopy (CSLM) (Caliber I.D., VIVASCOPE 1500) as published^1,9. As a vehicle (Control), ethanol (EtOH), dimethylsulfoxide (DMSO), or PBS was treated for RA, BMS493, and Poly (I:C), respectively.
Immunofluorescence. […] Fluorescence images were observed by fluorescence microscopy (Leica microsystems), taken pictures with ×100 (low magnification) and ×200 (high magnification), and saved as image files.

In assay [3] the test system is keratinocytes of Tlr3−/− mice. Briefly: Western blot of stem cell markers in keratinocytes of Tlr3-/- mice. It counts as cell-based, mouse. The note with it: keratinocytes of Tlr3−/− mice, BMS493 1 μM pre-treated. Here is the method:
Adult keratinocytes isolation and cultures. For human keratinocytes, 3-mm skin biopsies were taken from areas of the occipital scalp through above IRB protocols using enzyme digestion method as described in the literature^30,31. For mouse keratinocytes, tails of adult mice were used and followed by the same protocol of human keratinocytes. Briefly, the skin fragments were incubated in 0.4% dispase II solution overnight at 4° C., allowing separation of epidermis from dermis. Then epidermis was incubated with 0.25% trypsin-EDTA (Lonza, Walkersville, MD) to isolate keratinocytes for 5 min at 37° C. Adult keratinocytes were maintained in KGM including defined growth factors (KGM-GOLD Bullet kit, #192060) (Lonza) and supplemented with 10 μM of ROCK inhibitor (Y-27632) (Cayman Chemical, #10005583) until use^32. For all in vitro experiments, primary keratinocytes were passaged at least once to eliminate contaminating other cells isolated from epidermis and used at passage 2-4 for human and passage 1-2 for mouse keratinocytes.
as §1
Western blot analysis. Human and mouse keratinocytes were disrupted in M-PER lysis buffer (Thermo Fisher Scientific, #78501) containing protease inhibitors (Thermo Fisher Scientific, #87786) using ultrasonic homogenizer (20% power with 5 times every 2 seconds) to extract proteins. Then, protein concentrations were determined by BCA method (Thermo Fisher Scientific, #23225). Western blot procedures were followed by the protocol of NuPAGE system (Thermo Fisher Scientific). […] The signal intensity of protein was quantified using Image Lab software (Bio-Rad). […]

The subject of assay [4] is Wound Induced Hair Neogenesis (WIHN). Briefly: Wound Induced Hair Neogenesis (WIHN), regenerated hair follicles counted by CSLM. The note with it: WT mice, topical 0.1 μg per mouse on WD1, with or without Poly (I:C). It counts as in vivo, mouse. As for the experimental part:
as §2

Turning to “IL-6: Recombinant human interleukin 6 (R&D system; 206-IL-010)”, the RA accumulation entry in assay [1] was “sufficient to substantially stimulate RA accumulation”.

For the compound `CCN(CC)c1ccc(C=O)cc1` [DEAB, N,N-diethylaminobenzaldehyde], in assay [2] (broad ALDH chemical inhibition), the “Poly (I:C) induction of ALDH1A3, KRT15 and KRT19 protein” value is recorded as “disrupted”.

On to `CC1(C)CC=C(C#Cc2ccccc2)c2cc(/C=C/c3ccc(C(=O)O)cc3)ccc21` [BMS493], for which, in assay [2] (BMS493 1 μM pre-treated), the “RA and Poly (I:C)-induced KRT15 and KRT19 expression” value is reported as “substantially inhibited”. The “Wnt7b and Krt15 protein expression in wound beds prior to regeneration” value with wound beds was “decreased”. Also, in assay [3], the “RA-induced Krt15 and Krt19 expression” value is on record as “substantially inhibits expression”; the “RA-induced active β-catenin (ABC) expression” value is reported as “inhibits induction”. Moreover, the WIHN entry in assay [4] is “almost completely ablated”.
